Source: patent US20230257373A1, “QUORUM SENSING INHIBITORS AND METHODS OF USE” (priority 2020, published 2023)
Where two headings read alike, the source gives them in different places.

Tests used:
[1] = test system: V. coralliilyticus protease activity; assay: Protease assay (azocasein) in V. coralliilyticus; conditions: 2.5 μM PTSP vs DMSO
VcpR = assay: E. coli bioassay expressing VcpR (IPTG-inducible plasmid); type: cell-based, V. coralliilyticus; conditions: 25 μM PTSP
From the text: (§1) We hypothesized that there were several possible reasons for the observed difference in PTSP inhibition in the various Vibrio species, including but not limited to: 1) differences in LuxR-inhibitor interaction(s), 2) differences in diffusion of the inhibitor across the membranes, or 3) stability of the inhibitor in the cell and/or cell culture. To examine PTSP activity in a common strain background, we cloned the luxR gene from each Vibrio species into a plasmid under control of an IPTG-inducible promoter and assayed the effect of PTSP against these proteins in the E. coli bioassay. […] We conclude that the differences in PTSP activity in Vibrio species is due to differences in interaction between PTSP and the LuxR-type protein in each Vibrio.
(§2) In E. coli assays expressing the five different LuxR-type proteins (luxR, smcR, opaR, vcpR, hapR), slight changes to the protocol were implemented. The luxR genes were cloned under control of the IPTG-inducible Ptac promoter in plasmid pMMB67EH-kanR. […] Strains expressing hapR or smcR required 50 μM IPTG to observe activation of the GFP reporter; IPTG was not added to strains expressing luxR, vcpR, or opaR.

[2] = test system: V. campbellii protease activity; assay: Protease assay (azocasein) in V. campbellii; conditions: 2.5 μM PTSP vs DMSO
[3] = test system: PluxC-gfp reporter in V. campbellii; assay: PluxC-gfp reporter in V. campbellii strains; conditions: Vibrio campbellii
LuxR = LuxR (Vibrio harveyi, UniProt P21308); assay: E. coli bioassay expressing LuxR (IPTG-inducible plasmid); type: cell-based, V. campbellii; set-up: expressed in transfected cells; host or cells: E. coli DH10B with pMMB67EH-kanR derivative and pJV064; conditions: 25 μM PTSP
From the text: as §1, §2

SmcR [4] = biological target: T1, SmcR (Vibrio vulnificus, UniProt Q9L8G8); assay: EMSA DNA binding activity of SmcR; type: biochemical, V. vulnificus; conditions: saturating concentrations
Protocol: We noted that Qstatin and PTSP are both predicted to bind in the putative ligand binding pocket of SmcR. It is currently unknown how Qstatin allosterically affects DNA binding through its interactions in the ligand binding domain. […] We therefore also assessed the effect of sulfonamide PTSP on the DNA binding activity of LuxR and SmcR in vitro. […] (Kim et al., 2018).
(§3) SmcR and LuxR were purified as described previously. EMSAs were conducted as described previously using oligonucleotides corresponding to the luxC and vvpE promoter sequences. ITC analysis was conducted using purified LuxR or His-tagged SmcR, each in gel-filtration buffer (25 mM Tris pH 7.5, 300 mM NaCl, 0.5 mM EDTA, 1 mM DTT, 2% DMSO). All molecules analyzed were diluted in the same buffer. The samples were degassed for 10 min by vacuum aspiration. Titrations were performed on a Nano-ITC (TA Instruments). […] Thermograms were analyzed using NanoAnalyze software with the independent binding model.

V. vulnificus = assay: Growth of V. vulnificus with inhibitor; type: cell-based; conditions: high concentrations
From the text: (§4) Many sulfonamide-containing compounds are known to target the folate synthesis pathway in bacteria and inhibit growth (bacteriostatic), and thus these “sulfa drugs” have been used as broad-spectrum antibiotics for decades (Hammoudeh et al., 2013, Roland et al., 1979). […] We also tested the stability of the inhibitors in bacterial cultures and the timing of the inhibitory effect.

V. campbellii = assay: Growth of V. campbellii with inhibitor; type: cell-based; conditions: high concentrations
From the text: as §4

V. campbellii LuxR = biological target: T2, V. campbellii LuxR (Vibrio harveyi, UniProt P21308); assay: qRT-PCR and western blots in wild-type V. campbellii; type: cell-based
T2 construct: expressed in transfected cells; host or cells: E. coli DH10B with pKM699 and reporter pJV064
From the text: The Qstatin-treated regulon overlapped with the SmcR regulon by more than 50%, with similar gene expression fold-changes. […] This is important to note because LuxR and HapR proteins are known to autorepress their own expression. To test the effects of adding inhibitors to V. campbellii LuxR, we added 10A, 10B, and 10C to wild-type V. campbellii and used qRT-PCR and western blots to examine the effects on luxR transcript and protein levels. We also examined the transcript levels for luxC and 05222 genes that are directly activated or repressed by LuxR, respectively.
All PCR reactions were performed using Phusion HF polymerase (NEB). T4 polynucleotide kinase (T4 PNK) used in EMSAs and all other enzymes were purchased from NEB and used according to manufacturer's instructions. Site-directed mutagenesis for construction of plasmids expressing mutant proteins was carried out using the Agilent QuikChange II XL Site-Directed Mutagenesis Kit. All oligonucleotides were purchased from Integrated DNA Technologies (IDT).ALL plasmid constructs were confirmed by DNA sequencing (Eurofins). Cloning details for plasmids are available upon request. Western blot analysis was performed as previously described (van Kessel et al., 2013b), except that new anti-LuxR antibodies were generated through Cocalico against purified LuxR protein. In addition, the western blots were probed with anti-RpoB (Neoclone).
Then cells were induced with 50 μM IPTG and grown under the same conditions until cells reached an OD600 of approximately 1, at which 5 mL of cells were collected by centrifugation and frozen in liquid N2. RNA was extracted using a Trizol/chloroform extraction protocol previously described (Rutherford et al., 2011). Quantitative real-time PCR (qRT-PCR) was performed as previously described (Chaparian et al., 2016). Samples were normalized to the internal standard hfq gene. The ΔΔCT values were used to analyze data from three independent biological replicates. Symbols on graphs represent the mean values and error bars represent the standard deviations. All statistical analysis was performed with functions from GraphPad Prism version 8.

SmcR [5] = biological target: T1, SmcR; assay: ITC analysis of SmcR interaction with inhibitors; type: binding, V. vulnificus
From the text: To test the validity of the modelling predictions for PTSP, we performed isothermal titration calorimetry (ITC) to determine the binding affinity of SmcR and LuxR for PTSP. […] We noted that PTSP binding to both LuxR and SmcR had lower entropy and enthalpy compared to SmcR binding to Qstatin. […] Thus, we conclude that the efficacy of PTSP inhibition in vivo in these two Vibrio species correlates to the binding affinity determined in vitro for these two proteins.
as §3

T1 sequence (Q9L8G8 entry or part of it): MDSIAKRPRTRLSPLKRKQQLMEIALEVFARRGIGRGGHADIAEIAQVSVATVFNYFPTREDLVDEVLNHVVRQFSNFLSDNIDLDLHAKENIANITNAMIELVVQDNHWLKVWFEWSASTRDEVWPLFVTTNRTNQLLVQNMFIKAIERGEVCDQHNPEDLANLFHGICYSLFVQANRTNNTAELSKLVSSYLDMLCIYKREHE
T2 sequence (P21308 whole entry): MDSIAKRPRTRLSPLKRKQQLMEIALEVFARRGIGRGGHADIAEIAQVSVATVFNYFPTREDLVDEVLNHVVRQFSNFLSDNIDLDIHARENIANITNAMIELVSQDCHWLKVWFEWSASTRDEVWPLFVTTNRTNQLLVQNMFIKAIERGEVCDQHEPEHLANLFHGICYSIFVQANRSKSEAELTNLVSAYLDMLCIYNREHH
LuxR, sequence (P21308 whole entry): as above

For `O=S(=O)(c1cccs1)n1ccc(-c2ccccc2)n1` [Compound 10B], the “Protease activity of wild-type strain” value [1] was “significantly reduced protease activity”, the “Inhibition of VcpR in E. coli bioassay” value (VcpR) was “inhibited” and the “Protease activity of wild-type strain” value [2] was “significantly reduced protease activity”. It also gave an IC50 ([3]; ATCC25920, read-out: Inhibition (IC50) of the PluxC-gfp reporter, Vcamp ATCC 25920) of 30 nM, an IC50 ([3]; read-out: IC50, V. campbellii BB120, luxCDABE) of 140 nM and an IC50 ([3]; read-out: IC50, V. campbellii, b235) of 350 nM. For the same compound, the IC50 ([3]; read-out: Inhibition (IC50) of the PluxC-gfp reporter, Vcamp HY01) was 100 nM, the “Inhibition of LuxR in E. coli bioassay” value (LuxR) was “inhibited” and the “DNA binding to SmcR” value (SmcR [4]) was “did not alter DNA binding”. The “Growth rate or growth yield” value (V. vulnificus) was “did not alter growth rate or growth yield”, the “Growth rate or growth yield” value (V. campbellii) was “did not alter growth rate or growth yield” and the luxC transcripts (V. campbellii LuxR; qRT-PCR, to levels in a ΔluxR strain) was “significantly decreased”. For the same compound, the 05222 transcripts (V. campbellii LuxR; qRT-PCR, wild-type cultures) was “significantly increased”, the LuxR protein level (V. campbellii LuxR; western blot, wild-type V. campbellii) was “visible increase” and the Ka (SmcR [5]) was 4.85e+06 M⁻¹. The ΔG (SmcR [5]) was -9.092 kcal/mol, the ΔH (SmcR [5]) was -33.963 kcal/mol and the ΔS (SmcR [5]) was −348.97 J/mol · K. The “−TΔS” value (SmcR [5]) was 24.869 kcal/mol, the Kd (SmcR [5]; 25° C., read-out: Kd) was 227 nM and the ΔG (SmcR [5]; listed as PTSP) was -9.08 kcal/mol. It also gave a Kd (SmcR [5]; read-out: Dissociation constant (Kd)) of 230 nM.
